In patent US20110257225A1, “CYCLOHEXYLAMINE DERIVATIVE CONTAINING PHENYL GROUP, AND THERAPEUTIC AGENT FOR DISEASES ACCOMPANIED BY CENTRAL NERVOUS SYSTEM DISORDERS” (M'S Science Corporation, priority 2008, published 2011):

How the values were obtained:
[1] = system: rat cerebral cortex neural cells; experiment: Evaluation of neurite outgrowth-promoting activity in central neural cells; assay type: cell-based; details: 48 hours after addition, mean±standard error, control 18.0 ± 1.6
Method: The neurite outgrowth-promoting effects of the rat cerebral cortex neural cells on test substances were evaluated by the following method. The cerebral cortex neural cells were isolated from Wistar rats on the 18th day of pregnancy according to the method of Springer Neuroscience Lab Manual. That is to say, under ether anesthesia, a fetal rat was removed from the uterus of a pregnant rat on day 18, and transferred into a petri dish containing HBSS (manufactured by Gibco, Inc.) on ice. The cerebral cortex was cut out under a stereoscopic microscope. The cerebral cortex that had been cut out was dispersed with a neural cells dispersion solution (manufactured by Sumitomo Bakelite Co., Ltd.) to prepare rat cerebral cortex cells.
The resulting cerebral cortex cells were subjected to cell culture. Neurobasal medium (manufactured by Gibco, Inc.) supplemented with B27 Supplement (manufactured by Gibco, Inc.; Fin. 2% v/v), L-glutamine (manufactured by IBCO company; Fin. 0.5 mM) and GlutaMax I (manufactured by Gibco, Inc.; Fin. 0.5 mM) was used as the culture medium. The culture conditions were as follows: 5% CO2, 95% air, 100% humidity, and 37° C. The cells were inoculated to polylysine-coated 8-well slides (manufactured by IWAKI company) so as to have about 2×10^4 cells/well.
Compound [2], compound [3], compound [4], compound [5], compound [6], compound [7], compound [8], compound [9], compound [10], compound [11], and compound [12] (final•concentrations: 0.3 μM and 1.0 μM) were added as respective test substances to the culture solution at about 3 hours after the cell inoculation, and the culture solution with no additives was used as a control.
At 48 hours after the addition of the compounds, the cells were fixed by treatment with 4% paraformaldehyde (manufactured by Wako Pure Chemical Industries) at room temperature for about 30 minutes, and incubated with an anti-α-Tublin antibody (Anti-α-Tubulin Alexa Fluor 488 conjugate) recognizing a microtubule protein, at room temperature for one hour. After washing, the nucleus of the whole cell was stained with a nucleic acid-staining agent DAPI. The cells were observed under a fluorescence microscope at a magnification of 20 times. The stained cell image and the nuclear staining image in the same field of vision were imported into a computer as the image. Using an image analysis software (MethaMorph (registered trademark), Molecular Devises), the image imported into the computer was used to measure the “longest neurite length” that was the length of the longest neurite of individual cell in each field of vision. A cell having a length of the “longest neurite length” of 60 μm or more was defined as a “neurite forming cell” and the neurite forming activity was evaluated by the ratio of the “neurite forming cell” occupied in the number of the cells in the same field of vision. In other words, evaluation was performed by determining the rate of the neurite forming cells using the following equation:
Rate of neurite forming cells=[Number of neurite forming cells/Number of total cells in the same field of vision]×100

[2] = target: T1, sigma receptor (Cavia porcellus, UniProt Q60492); experiment: Evaluation of affinity to sigma receptors ([3H](+)-pentazocine receptor binding, whole-brain membrane preparation); design: species or system guinea pig; details: for Ki: Ki from Dixon plot; for inhibition at 1 µM: compound concentration 1 × 10^−6 mol/L; for inhibition at 1 µM / inhibition at 0.1 µM / inhibition at 0.01 µM / inhibition at 0.001 µM / inhibition at 0.0001 µM / inhibition at 10 pM: [3H](+)-pentazocine, 25° C., 60 minutes, read-out: Inhibition rate (%); for inhibition at 0.1 µM: compound concentration 1 × 10^−7 mol/L; for inhibition at 0.01 µM: compound concentration 1 × 10^−8 mol/L; for inhibition at 0.001 µM: compound concentration 1 × 10^−9 mol/L; for inhibition at 0.0001 µM: compound concentration 1 × 10^−10 mol/L; for inhibition at 10 pM: compound concentration 1 × 10^−11 mol/L; for IC50: from logit-log regression of the dose-response curve
T1 construct: A membrane preparation as a sigma receptor obtained from the whole brain of guinea pigs; from tissue; host or cells: guinea pig whole brain membrane preparation
Method: The following measurement of radioactivity was performed according to a usual method after the binding reaction had been carried out at 25° C. for 60 minutes.
The inhibition rate was determined by the equation of “100−binding rate”. The binding rate is represented by the following equation:
The IC50 of the test substance was calculated from a regression equation to the dose-response curve. That is to say, the ratio y=(B−N)/(B0−N) wherein a value of (B−N) is a specific binding radioactivity in the presence of a test substance, and a value of (B0−N) is a specific binding radioactivity in the absence of a test substance was first subjected to logit conversion and applied to a logit-log model plotted against the common logarithm of the test substance concentration to create a dose-response curve. […] The regression equation to the dose-response curve used is as follows: […]
Then, for each concentration of the positive substances, the reaction rate was measured while changing the concentration of the test substance in a range including the IC50 to create the Dixon plot, and the Ki value was calculated from the test substance concentration giving an intersection of these straight lines.

[3] = system: rat cerebral cortex neural cells; experiment: Evaluation of neurite outgrowth-promoting activity in central neural cells; assay type: cell-based; details: cultured for 48 hours

T1 sequence (Q60492 whole entry): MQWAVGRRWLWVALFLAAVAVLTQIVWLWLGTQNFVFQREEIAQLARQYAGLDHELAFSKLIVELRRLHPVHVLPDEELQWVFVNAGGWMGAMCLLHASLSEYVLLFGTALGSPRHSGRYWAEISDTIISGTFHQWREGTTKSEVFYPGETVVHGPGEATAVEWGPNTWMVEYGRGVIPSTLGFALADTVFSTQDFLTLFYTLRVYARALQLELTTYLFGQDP

Compound	Ki [2] [nM]	inhibition at 1 µM [2] [%]	inhibition at 0.1 µM [2] [%]	inhibition at 0.01 µM [2] [%]	inhibition at 0.001 µM [2] [%]	inhibition at 0.0001 µM [2] [%]	inhibition at 10 pM [2] [%]	IC50 [2] [nM]	Neurite outgrowth-promoting activity (%) (rate of neurite forming cells, longest neurite 60 μm or more) ([1]; 0.3 μM)	Neurite outgrowth-promoting activity (%) (rate of neurite forming cells, longest neurite 60 μm or more) ([1]; 1.0 μM)	ratio of cells extending dendrites compared with no additives (FIG. 1) ([3]; final concentration 1 μM)	ratio of cells having neurites having the length two or more times the cell body diameter (FIG. 2) ([3]; final concentrations 0.1 μM, 1 μM, 10 μM)
c1ccc(SCCN2CCCC3CCCCC32)cc1 (stereo not shown) [Compound [3], N-(2-phenylthio)ethyldecahydroquinoline]	1.6	99.9	100	90.4	46.8	6.31	2.84	1.2	32.8 ± 5.3	52.6 ± 1.2		
CCN(CCSc1cccc(C(F)(F)F)c1)C1CCCCC1 [Compound [4], N-[2-(3-trifluoromethyl)phenylthio]ethyl-N-ethylcyclohexylamine]	0.8	100	100	99.7	95.2	23.5	10.4	0.189	21.4 ± 2.2	39.4 ± 2.5		
CCN(CCSc1cccc(C(F)F)c1)C1CCCCC1 [Compound [5], N-[2-(3-difluoromethyl)phenylthio]ethyl-N-ethylcyclohexylamine]		97.5	99.2	98.6	92.8	20.8	1.25	0.222	41.6 ± 3.3	50.8 ± 2.8		
CCN(CCSc1ccc(OC)c(OC)c1)C1CCCCC1 [Compound [6], N-[2-(3,4-dimethoxy)phenylthio]ethyl-N-ethylcyclohexylamine]	3.7	99.9	99.1	98.1	86.6	19.9	1.75	0.268		40.3 ± 3.4		
CCN(CCOc1ccc(F)cc1)C1CCCCC1 [Compound [11], N-ethyl-N-[2-(4-fluorophenoxy)ethyl]cyclohexylamine]	2.4								43.5 ± 2.4	50.7 ± 2.2		
CCN(CCOc1ccccc1)C1CCCCC1 [Compound [12], N-ethyl-N-(2-phenoxyethyl)cyclohexylamine]	6.6								44.2 ± 1.4	32.2 ± 1.0		
COc1ccc(CCN2CCN(CCCc3ccccc3)CC2)cc1OC [Reference compound, SA4503, reference compound]									44.6 ± 2.2	58.4 ± 1.8		

The next lines start with results.

Ki [2] [nM]	inhibition at 1 µM [2] [%]	inhibition at 0.1 µM [2] [%]	inhibition at 0.01 µM [2] [%]	inhibition at 0.001 µM [2] [%]	inhibition at 0.0001 µM [2] [%]	inhibition at 10 pM [2] [%]	IC50 [2] [nM]	Compound	Neurite outgrowth-promoting activity (%) (rate of neurite forming cells, longest neurite 60 μm or more) ([1]; 0.3 μM)	Neurite outgrowth-promoting activity (%) (rate of neurite forming cells, longest neurite 60 μm or more) ([1]; 1.0 μM)	ratio of cells extending dendrites compared with no additives (FIG. 1) ([3]; final concentration 1 μM)	ratio of cells having neurites having the length two or more times the cell body diameter (FIG. 2) ([3]; final concentrations 0.1 μM, 1 μM, 10 μM)
1								CCN(CCSc1ccccc1)C1CCCCC1 [Compound [2], N-(2-(phenylthio)ethyl)-N-ethylcyclohexylamine]	37.4 ± 3.5	50.6 ± 1.4	obviously higher than that of the case of no additives	significantly increased
0.8	97.3	96.3	90	44.5	3.43	0	1.23	CCN(CCSc1ccc(F)cc1)C1CCCCC1 [Compound [7], N-[2-(4-fluorophenylthio)ethyl]-N-ethylcyclohexylamine]	30.2 ± 2.5	53.3 ± 1.4		
8.7								CCN(CCCc1ccccc1)C1CCCCC1 [Compound [8], N-(3-phenylpropyl)-N-ethylcyclohexylamine]	59.9 ± 1.8	61.7 ± 2.0		
10.5								CCN(CCCc1ccc(OC)cc1)C1CCCCC1 [Compound [9], N-[3-(4-methoxyphenyl)propyl]-N-ethylcyclohexylamine]	31.4 ± 5.8	59.6 ± 1.0		
8.5								CCN(CCCc1ccc(F)cc1)C1CCCCC1 [Compound [10], N-[3-(4-fluorophenyl)propyl]-N-ethylcyclohexylamine]	26.8 ± 1.1	57.0 ± 3.0		
